Measurements: patent US20260130933A1, “PHARMACEUTICAL COMPOSITION FOR PREVENTION OR TREATMENT OF NEPHROPATHY AND/OR DIABETES MELLITUS, COMPRISING ENAVOGLIFLOZIN” (DAEWOONG PHARMACEUTICAL CO., LTD., priority 2022, published 2026)

Test: Example 3: phase 3 trial, enavogliflozin 0.3 mg vs dapagliflozin 10 mg once a day for 24 weeks added to metformin and gemigliptin in patients with type 2 diabetes (same endpoints, rescue drug)
Format: in vivo, human
Details: week 12
Description: 1) when Metformin (≥1,000 mg/Day) was Administered at a Constant Dose for at Least 8 Weeks Prior to Pre-Visit (Pre-Screening) • Metformin (≥1,000 mg/day) and gemigliptin (50 mg/day) were co-administered during the 8-week stabilization period. […] 4) when Metformin (≥1,000 mg/Day) and Gemigliptin (50 mg/Day) were Co-Administered at Constant Doses for at Least 8 Weeks Prior to Pre-Visit (Prescreening) • Without a separate stabilization period, Pre-visit (pre-screening) was Visit 1 (screening).
Subjects who met the inclusion/exclusion criteria continued to receive metformin and gemigliptin while receiving a placebo of the clinical trial drug in a single-blind (subject-blinded) state for a 2-week run-in period.
Here, the randomized subjects were stratified according to the administration therapy (co-administration with two or less agents (one or two agents) or three or more agents) of a conventional hypoglycemic agent (before washout of another hypoglycemic agent) within 24 weeks prior to obtaining written informed consent and by an HbA1c value (<8% or ≥8%) at Visit 1 (screening) measured in the central laboratory.
The randomized subjects were administered two tablets of the clinical trial drug corresponding to each administration group once a day, and then visited the institution at weeks 6, 12, 18, and 24 during the 24-week administration period to conduct efficacy and safety assessments. In addition, during the clinical trial period, they were instructed to exercise regularly and control their diet without changing their daily life patterns.
• 1) Change in HbA1c at week 24 after administration of clinical trial drug compared to Visit 2 (randomization)
• 1) Change in HbA1c at each time point of weeks 6, 12, and 18 after administration of clinical trial drug compared to Visit 2 (randomization) • 2) Change in FPG at each time point of weeks 6, 12, 18, and 24 after administration of clinical trial drug compared to Visit 2 (randomization) • 3) Proportion of subjects achieving HbA1c<7% at each time point of weeks 6, 12, 18, and 24 after administration of clinical trial drug • 4) Proportion of subjects achieving HbA1c<6.5% at each time point of weeks 6, 12, 18, and 24 after administration of clinical trial drug • 5) Proportion of subjects achieving therapeutic response (HbA1c change (HbA1c at Visit 2—HbA1c at each evaluation time point)>0.5% or HbA1c<7% at each evaluation time point compared to Visit 2 (randomization)) at each time point of weeks 6, 12, 18, and 24 after administration of clinical trial drug • 6) Proportion of subjects achieving therapeutic response (HbA1c change (HbA1c at Visit 2—HbA1c at each evaluation time point)>0.7% or HbA1c<7% at each evaluation time point compared to Visit 2 (randomization)) at each time point of weeks 6, 12, 18, and 24 after administration of clinical trial drug • 7) Proportion of subjects achieving therapeutic response (HbA1c change (HbA1c at Visit 2—HbA1c at each evaluation time point)>1% or HbA1c<7% at each evaluation time point compared to Visit 2 (randomization)) at each time point of weeks 6, 12, 18, and 24 after administration of clinical trial drug

[1] = modified per-protocol set 2, enavogliflozin 0.3 mg, dapagliflozin 10 mg
[2] = per-protocol set, enavogliflozin 0.3 mg vs dapagliflozin 10 mg
[3] = per-protocol set, enavogliflozin 0.3 mg, dapagliflozin 10 mg

Compound: OC[C@H]1O[C@@H](c2cc(Cc3ccc(C4CC4)cc3)c(Cl)c3c2CCO3)[C@H](O)[C@@H](O)[C@@H]1O [Enavogliflozin, (2S,3R,4R,5S,6R)-2-(7-chloro-6 (4-cyclopropylbenzyl)-2,3-dihydrobenzofuran-4-yl)-6-(hydroxymethyl)tetrahydro-2H-pyran-3,4,5-triol]
- Change from baseline in diastolic blood pressure, Mean (modified per-protocol set 2): −5.07 mmHg
- Change from baseline in diastolic blood pressure, Median (modified per-protocol set 2): −5.00 mmHg
- Diastolic blood pressure, Mean (modified per-protocol set 2): 71.61 mmHg
- Diastolic blood pressure, Median (modified per-protocol set 2): 72.00 mmHg
- Change from baseline in systolic blood pressure, ANCOVA LS mean difference (modified per-protocol set 2, enavogliflozin 0.3 mg vs dapagliflozin 10 mg): −1.37 mmHg
- Change from baseline in systolic blood pressure, ANCOVA LS mean [1]: −6.43 mmHg
- Change from baseline in systolic blood pressure, Mean [1]: −7.10 mmHg
- Change from baseline in systolic blood pressure, Median [1]: −8.00 mmHg
- Systolic blood pressure, Mean [1]: 120.73 mmHg
- Systolic blood pressure, Median [1]: 121.00 mmHg
- Adiponectin, Mean (per-protocol set): 7.13 µg/mL
- Adiponectin, Median (per-protocol set): 6.24 µg/mL
- Change from baseline in HOMA-IR, ANCOVA LS mean (per-protocol set): −1.11
- Change from baseline in HOMA-IR, LS mean difference (enavogliflozin − dapagliflozin) (per-protocol set): −0.06
- Change from baseline in HOMA-IR, Mean (per-protocol set): −1.16
- Change from baseline in HOMA-IR, Median (per-protocol set): −0.79
- Change from baseline in HOMA-β, ANCOVA LS mean (per-protocol set): 7.78
- Change from baseline in HOMA-β, LS mean difference (enavogliflozin − dapagliflozin) (per-protocol set): 2.55
- Change from baseline in HOMA-β, Mean (per-protocol set): 6.71
- Change from baseline in HOMA-β, Median (per-protocol set): 4.80
- Change from baseline in UACR, ANCOVA LS mean (per-protocol set): -15.12 g/kg
- Change from baseline in UACR, LS mean difference (enavogliflozin − dapagliflozin) (per-protocol set): -3.35 g/kg
- Change from baseline in UACR, Mean (per-protocol set): -18.62 g/kg
- Change from baseline in UACR, Median (per-protocol set): -1.05 g/kg
- Change from baseline in UGCR, ANCOVA LS mean (per-protocol set): 58.21 mg/mg
- Change from baseline in UGCR, LS mean difference (enavogliflozin − dapagliflozin) (per-protocol set): 13.37 mg/mg
- Change from baseline in UGCR, Mean (per-protocol set): 57.00 mg/mg
- Change from baseline in UGCR, Median (per-protocol set): 57.05 mg/mg
- Change from baseline in adiponectin, ANCOVA LS mean (per-protocol set): 0.89 µg/mL
- Change from baseline in adiponectin, LS mean difference (enavogliflozin − dapagliflozin) (per-protocol set): 0.19 µg/mL
- Change from baseline in adiponectin, Mean (per-protocol set): 0.88 µg/mL
- Change from baseline in adiponectin, Median (per-protocol set): 1.00 µg/mL
- Change from baseline in leptin, ANCOVA LS mean (per-protocol set): -1.97 ng/mL
- Change from baseline in leptin, LS mean difference (enavogliflozin − dapagliflozin) (per-protocol set): -0.28 ng/mL
- Change from baseline in leptin, Mean (per-protocol set): -1.96 ng/mL
- Change from baseline in leptin, Median (per-protocol set): -1.28 ng/mL
- HOMA-IR (insulin resistance), Mean (per-protocol set): 1.76
- HOMA-IR (insulin resistance), Median (per-protocol set): 1.46
- HOMA-β (beta-cell function), Mean (per-protocol set): 49.46
- HOMA-β (beta-cell function), Median (per-protocol set): 41.50
- Leptin, Mean (per-protocol set): 8.56 ng/mL
- Leptin, Median (per-protocol set): 5.74 ng/mL
- UACR, Mean (per-protocol set): 29.37 g/kg
- UACR, Median (per-protocol set): 11.20 g/kg
- UGCR, Mean (per-protocol set): 57.71 mg/mg
- UGCR, Median (per-protocol set): 57.43 mg/mg
- Achieving HbA1c target of <6.5%, odds ratio (logistic regression model) [2]: 1.44
- Achieving HbA1c target of <7%, odds ratio (logistic regression model) [2]: 1.20
- Change from baseline in FPG, ANCOVA LS mean difference [2]: -2.75 mg/dL
- Change from baseline in HbA1c, ANCOVA LS mean difference [2]: −0.04 % p
- Change from baseline in body weight, ANCOVA LS mean difference [2]: -0.01 kg
- Change from baseline in fasting C-peptide, ANCOVA LS mean difference [2]: -0.02 ng/mL
- Therapeutic glycemic response 1, odds ratio (logistic regression model) [2]: 1.09
- Therapeutic glycemic response 2, odds ratio (logistic regression model) [2]: 1.30
- Therapeutic glycemic response 3, odds ratio (logistic regression model) [2]: 1.31
- Body weight, Mean [3]: 66.54 kg
- Change from baseline in FPG, ANCOVA LS mean [3]: -27.17 mg/dL
- Change from baseline in FPG, Mean [3]: -27.47 mg/dL
- Change from baseline in FPG, Median [3]: -25.00 mg/dL
- Change from baseline in HbA1c, ANCOVA LS mean [3]: −0.87 % p
- Change from baseline in HbA1c, Mean [3]: −0.89 % p
- Change from baseline in HbA1c, Median [3]: −0.75 % p
- Change from baseline in body weight, ANCOVA LS mean [3]: -2.72 kg
- Change from baseline in body weight, Mean [3]: -2.65 kg
- Change from baseline in body weight, Median [3]: -2.90 kg
- Change from baseline in fasting C-peptide, ANCOVA LS mean [3]: -0.09 ng/mL
- Change from baseline in fasting C-peptide, Mean [3]: -0.09 ng/mL
- Change from baseline in fasting C-peptide, Median [3]: -0.10 ng/mL
- FPG, Mean [3]: 112.29 mg/dL
- FPG, Median [3]: 110.00 mg/dL
- Fasting C-peptide, Mean [3]: 0.64 ng/mL
- Fasting C-peptide, Median [3]: 0.63 ng/mL
- HbA1c, Mean [3]: 6.90%
